Several values for one entry are separate records, joined by “and”; a condition that tells them apart may be missing. Identical values can stand only once.

Experiment [1] deals with LPS-induced acute lung injury in mice. Kind of experiment: LPS-induced acute lung injury in mice, inflammatory factors in lung tissue homogenate. Type of experiment: in vivo. The conditions noted are these: 50 mg/kg intraperitoneal, 7 days, left lung homogenate, mean±SD.
The test system of experiment [2] is Escherichia coli-induced pneumonia in mice. Kind of experiment: Escherichia coli-induced pneumonia in mice, inflammatory factors in lung tissue homogenate. Type of experiment: in vivo. The conditions noted are these: 100 mg/kg intragastric (positive control), 7 days, left lung homogenate, mean±SD.

Regarding `C[C@@H]1C[C@H]2[C@@H]3CCC4=CC(=O)C=C[C@]4(C)[C@@]3(F)[C@@H](O)C[C@]2(C)[C@@]1(O)C(=O)CO` [Dexamethasone, dexamethasone], in experiment [1], the IL-6 is 255.18 ± 35.63 pg/mL, the IL-8 worked out at 52.7 ± 9.99 pg/mL, the TNF-α is 861.41 ± 71.04 pg/mL and the “Tp (Total protein)” value is 202.40 ± 16.54 µg/mL.
In the case of gentamicin sulfate [Gentamycin Sulfate], in experiment [2], the IL-6 turned out to be 285.16 ± 32.71 pg/mL; the IL-8 is reported as 49.36 ± 10.01 pg/mL; the TNF-α was 834.10 ± 70.10 pg/mL; the Tp result is “significantly decreased and 197.05 ± 14.20 μg/mL”. Further, in experiment [2] (listed as gentamicin sulfate), the IL-6 result is “significantly decreased”, the IL-8 result is “significantly decreased” and the TNF-α result was “significantly decreased”.

Source of the values: US20200206257A1, “HOMOGENEOUS POLY[…]-B4, DERIVED FROM HERBA EPHEDRA, PREPARATION METHOD AND MEDICAL USE THEREOF” (priority 2018, published 2020).
